{"source": "PubChem BioAssay AID2060898", "about": "(Molecular Pharmacology Branch, DTP, NCI, 2025);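 also: spheroids exposed to agents for seven days before viability readout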;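 as to viability, T/C: 100% = DMSO vehicle control viability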", "tested_on": "616215-338-R-J1-PDC complex spheroid viability", "assay": "Anticancer human tumor 616215-338-R-J1-PDC patient-derived colon adenocarcinoma cell line growth inhibition [RAS]", "settings": "for IC50: curve of first compound; for viability, T/C: stronger effect = lower value", "method_in_brief": "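Multi-cell-type spheroids: tumor cells plus HUVEC endothelial cells and mesenchymal stem cells. RAS-pathway inhibitors were combined with targeted agents, each dosed in half-log steps down from clinical Cmax, or from 10 microM when Cmax was unknown.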"}
{"smiles": "Cc1nc(N2CCC3(CC2)COC(C)C3N)c(CO)nc1Sc1ccnc(N)c1Cl", "note": "(configuration not stated) + C=CC(=O)N1CCN(c2nc(OCC3CCCN3C)nc3c(F)c(-c4nc(N)cc(C)c4C(F)(F)F)c(Cl)cc23)C(C)C1", "values": [{"measurement": "IC50", "setting": "second compound 0.00316 µM", "value": "> 10", "unit": "µM"}, {"measurement": "IC50", "setting": "second compound 0.01 µM", "value": "> 10", "unit": "µM"}, {"measurement": "IC50", "setting": "second compound 0.0316 µM", "value": "> 10", "unit": "µM"}, {"measurement": "IC50", "setting": "second compound 0.1 µM", "value": "> 10", "unit": "µM"}, {"measurement": "IC50", "setting": "second compound 0.316 µM", "value": "> 10", "unit": "µM"}, {"measurement": "IC50", "setting": "second compound 1 µM", "value": "> 10", "unit": "µM"}, {"measurement": "viability, T/C", "setting": "second compound 0.00316 µM, first compound 0.0316 µM", "value": 93.3, "unit": "%"}, {"measurement": "viability, T/C", "setting": "second compound 0.00316 µM, first compound 0.1 µM", "value": 101, "unit": "%"}, {"measurement": "viability, T/C", "setting": "second compound 0.00316 µM, first compound 0.316 µM", "value": 125, "unit": "%"}, {"measurement": "viability, T/C", "setting": "second compound 0.00316 µM, first compound 1 µM", "value": 95.6, "unit": "%"}, {"measurement": "viability, T/C", "setting": "second compound 0.00316 µM, first compound 3.16 µM", "value": 98.1, "unit": "%"}, {"measurement": "viability, T/C", "setting": "second compound 0.00316 µM, first compound 10 µM", "value": 84.7, "unit": "%"}, {"measurement": "viability, T/C", "setting": "second compound 0.01 µM, first compound 0.0316 µM", "value": 114, "unit": "%"}, {"measurement": "viability, T/C", "setting": "second compound 0.01 µM, first compound 0.1 µM", "value": 111, "unit": "%"}, {"measurement": "viability, T/C", "setting": "second compound 0.01 µM, first compound 0.316 µM", "value": 110, "unit": "%"}, {"measurement": "viability, T/C", "setting": "second compound 0.01 µM, first compound 1 µM", "value": 110, "unit": "%"}, {"measurement": "viability, T/C", "setting": "second compound 0.01 µM, first compound 3.16 µM", "value": 90.2, "unit": "%"}, {"measurement": "viability, T/C", "setting": "second compound 0.01 µM, first compound 10 µM", "value": 83.7, "unit": "%"}, {"measurement": "viability, T/C", "setting": "second compound 0.0316 µM, first compound 0.0316 µM", "value": 107, "unit": "%"}, {"measurement": "viability, T/C", "setting": "second compound 0.0316 µM, first compound 0.1 µM", "value": 110, "unit": "%"}, {"measurement": "viability, T/C", "setting": "second compound 0.0316 µM, first compound 0.316 µM", "value": 114, "unit": "%"}, {"measurement": "viability, T/C", "setting": "second compound 0.0316 µM, first compound 1 µM", "value": 99.3, "unit": "%"}, {"measurement": "viability, T/C", "setting": "second compound 0.0316 µM, first compound 3.16 µM", "value": 109, "unit": "%"}, {"measurement": "viability, T/C", "setting": "second compound 0.0316 µM, first compound 10 µM", "value": 80.6, "unit": "%"}, {"measurement": "viability, T/C", "setting": "second compound 0.1 µM, first compound 0.0316 µM", "value": 98.7, "unit": "%"}, {"measurement": "viability, T/C", "setting": "second compound 0.1 µM, first compound 0.1 µM", "value": 113, "unit": "%"}, {"measurement": "viability, T/C", "setting": "second compound 0.1 µM, first compound 0.316 µM", "value": 115, "unit": "%"}, {"measurement": "viability, T/C", "setting": "second compound 0.1 µM, first compound 1 µM", "value": 119, "unit": "%"}, {"measurement": "viability, T/C", "setting": "second compound 0.1 µM, first compound 3.16 µM", "value": 97.3, "unit": "%"}, {"measurement": "viability, T/C", "setting": "second compound 0.1 µM, first compound 10 µM", "value": 83.2, "unit": "%"}, {"measurement": "viability, T/C", "setting": "second compound 0.316 µM, first compound 0.0316 µM", "value": 105, "unit": "%"}, {"measurement": "viability, T/C", "setting": "second compound 0.316 µM, first compound 0.1 µM", "value": 99, "unit": "%"}, {"measurement": "viability, T/C", "setting": "second compound 0.316 µM, first compound 0.316 µM", "value": 129, "unit": "%"}, {"measurement": "viability, T/C", "setting": "second compound 0.316 µM, first compound 1 µM", "value": 102, "unit": "%"}, {"measurement": "viability, T/C", "setting": "second compound 0.316 µM, first compound 3.16 µM", "value": 106, "unit": "%"}, {"measurement": "viability, T/C", "setting": "second compound 0.316 µM, first compound 10 µM", "value": 73, "unit": "%"}, {"measurement": "viability, T/C", "setting": "second compound 1 µM, first compound 0.0316 µM", "value": 97.7, "unit": "%"}, {"measurement": "viability, T/C", "setting": "second compound 1 µM, first compound 0.1 µM", "value": 110, "unit": "%"}, {"measurement": "viability, T/C", "setting": "second compound 1 µM, first compound 0.316 µM", "value": 99.7, "unit": "%"}, {"measurement": "viability, T/C", "setting": "second compound 1 µM, first compound 1 µM", "value": 109, "unit": "%"}, {"measurement": "viability, T/C", "setting": "second compound 1 µM, first compound 3.16 µM", "value": 89.4, "unit": "%"}, {"measurement": "viability, T/C", "setting": "second compound 1 µM, first compound 10 µM", "value": 75.4, "unit": "%"}]}
